Data on one compound can be found in patent US6403831B1, “Substituted benzylidene indenyl formamides, acetamides and propionamides” (Cell Pathways, Inc., priority 1996, dated 2002).

The test system of test [1] is HT-29 human colon carcinoma cells. Nature of the test: Apoptosis by morphology (acridine orange/ethidium bromide, condensed chromatin). The format is cell-based. To be noted: HT-29 cells.
The subject of test [2] is SW-480 colon adenocarcinoma cells. Nature of the test: Apoptosis by DNA fragmentation (Cell Death Detection ELISA plus). To be noted: SW-480 cells, 48 hrs. The format is cell-based, human. Background: An ELISA detects its analyte on a solid surface through an enzyme-linked reagent.
Test [3] concerns human colon carcinoma cell line, SW-480. Nature of the test: Growth inhibition, Sulforhodamine B (SRB) protein binding assay. To be noted: SW-480 cell line, six days continuous exposure. The format is cell-based. A digest of the protocol: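 SW-480 cells at 1000 cells/well exposed continuously to compound for six days in RPMI with 5% FCS, 0.1% DMSO vehicle. Growth measured by sulforhodamine B staining and optical density relative to controls; IC50 read graphically from mean values, three wells per concentration.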

The target in a further test is T1, COX I (Ovis aries, UniProt P05979).
T1 construct: The COX was purified form ram seminal vesicles; from tissue; host or cells: ram seminal vesicles
T1 sequence (P05979 25-600): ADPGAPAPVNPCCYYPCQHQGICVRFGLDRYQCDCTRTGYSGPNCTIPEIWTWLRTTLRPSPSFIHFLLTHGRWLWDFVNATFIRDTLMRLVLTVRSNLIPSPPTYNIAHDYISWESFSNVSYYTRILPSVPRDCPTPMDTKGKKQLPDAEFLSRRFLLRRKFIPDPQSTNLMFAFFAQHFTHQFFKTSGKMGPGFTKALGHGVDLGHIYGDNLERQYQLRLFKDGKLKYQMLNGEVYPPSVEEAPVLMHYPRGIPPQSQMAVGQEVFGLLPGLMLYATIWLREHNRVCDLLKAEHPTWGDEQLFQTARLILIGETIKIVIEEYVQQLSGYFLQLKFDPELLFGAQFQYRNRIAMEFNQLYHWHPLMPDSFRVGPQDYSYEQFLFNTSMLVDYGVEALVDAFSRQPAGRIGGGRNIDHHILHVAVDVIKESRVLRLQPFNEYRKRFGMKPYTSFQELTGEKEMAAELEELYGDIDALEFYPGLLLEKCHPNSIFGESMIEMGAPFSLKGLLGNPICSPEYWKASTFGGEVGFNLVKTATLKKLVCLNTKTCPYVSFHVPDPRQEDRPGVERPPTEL
Put plainly: Cyclooxygenase (COX) inhibition, purified COX. The format is biochemical. To be noted: 100 μM test compound; purified COX from ram seminal vesicles, arachidonic acid 100 μM. A digest of the protocol: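 Ram seminal vesicle COX, purified, was incubated 2.0 min at 37° C with 100 μM arachidonic acid with or without test compounds. Reactions stopped with TCA; activity read as absorbance at 530 nm.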

Turning to `COc1cc(OC)c(OC)cc1/C=C1/C(C)=C(CC(=O)NCc2ccccc2)c2cc(F)ccc21` [Example 58, (Z)-5-fluoro-2-methyl-1-(2,4,5-trimethoxybenzylidene)-3-(N-benzyl)-indenylacetamide], in test [1], the “Morphology % Apoptotic Cells (1 μM)” value stood at 52%. Moreover, in test [2] (by software or estimated from effective concentration range), the EC50 was 700 nM. For the same compound, the “DNA Fragmentation FS (100 μM)” value in test [2] (fold stimulation FS=ODmax/ODveh, 100 μM) is reported as 2.5. The half-inhibitory concentration (IC50) in test [3] is 980 nM. The “COX I % Inhibition (100 μM)” value on COX I is reported as below 25%.

A word on the EC50: it is the midpoint of the concentration-response curve. The term IC50 denotes the concentration that gives 50% inhibition. Read a high IC50 as lower potency.
